In patent US20170305922A1, “CARM1 INHIBITORS AND USES THEREOF” (Epizyme, Inc., priority 2014, published 2017):

Key:
Human CARM1 (PRMT4) = biological target: T1, Human CARM1 (PRMT4) (Homo sapiens, UniProt Q86X55); experiment: CARM1 enzyme assay on peptide substrates (3H-SAM Flashplate); settings: Biochemical assay; CARM1 0.25 nM, 3H-SAM 30 nM, peptide 250 nM; read-out: Biochem IC50
T1 construct: Flag-CARM1-His was eluted with 200 ug/ml FLAG peptide in buffer A; made in house; host or cells: HEK 293F cells infected with recombinant baculovirus (pFastBacMam)
T1 sequence (Q86X55 1-585 isoform Q86X55-1): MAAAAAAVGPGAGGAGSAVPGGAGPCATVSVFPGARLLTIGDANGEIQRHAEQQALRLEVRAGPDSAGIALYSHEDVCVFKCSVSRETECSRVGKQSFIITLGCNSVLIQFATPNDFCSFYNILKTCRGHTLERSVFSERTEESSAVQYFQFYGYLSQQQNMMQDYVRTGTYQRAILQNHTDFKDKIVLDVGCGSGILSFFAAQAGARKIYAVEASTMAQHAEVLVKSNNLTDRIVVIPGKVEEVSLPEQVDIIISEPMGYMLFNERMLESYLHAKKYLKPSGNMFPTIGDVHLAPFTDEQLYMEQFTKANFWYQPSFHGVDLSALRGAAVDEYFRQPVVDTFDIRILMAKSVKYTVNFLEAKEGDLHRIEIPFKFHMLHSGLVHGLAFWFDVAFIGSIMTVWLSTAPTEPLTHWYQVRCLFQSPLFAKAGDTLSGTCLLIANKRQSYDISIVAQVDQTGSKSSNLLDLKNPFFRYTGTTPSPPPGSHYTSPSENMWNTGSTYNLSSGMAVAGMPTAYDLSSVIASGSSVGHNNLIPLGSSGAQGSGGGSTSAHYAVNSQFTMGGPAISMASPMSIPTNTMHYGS

[1] = tested on: asymmetric di-methyl PABP1 in RKO cells; experiment: RKO methylation assay: In Cell Western (ICW) for asymmetric di-methyl PABP1 (PABP1me2a); settings: Cellular-based (PABP1me2a) ICW (In Cell Western) assay
Method in brief: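 In-cell western on compound-exposed RKO cells (48 hours): asymmetric di-methyl PABP1 detected by antibody at 800 nm, DNA content by DRAQ5 at 700 nm. Percent inhibition from signal ratios against DMSO (minimum) and 20 μM reference compound (maximum) wells; IC50 curves fitted from triplicates.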

IC50 (Human CARM1 (PRMT4)) [nM]	IC50 ([1]; Homo sapiens, RKO, 48 h) [nM]	IC50 ([1]; 48 hours) [nM]	Compound
0.8	355		CNC[C@@H](O)COc1ccc(Cl)c(-c2nc(-c3c(C)noc3C)c(C)c(N3CC4(CC(N5CC(OC)C5)C4)C3)n2)c1 [Example 269]
4.95	269		CNC[C@@H](O)COc1ccc(Cl)c(-c2nc(-c3c(C)noc3C)c(C)c(N3CC4(CC(N5CCOCC5)C4)C3)n2)c1 [Example 270]
7.42	89.1		CNC[C@@H](O)COc1ccc(Cl)c(-c2nc(-c3c(C)noc3C)c(C)c(N3CC4(CC(N(C)CC(F)(F)F)C4)C3)n2)c1 [Example 271]
5.43	79		CNC[C@@H](O)COc1ccc(Cl)c(-c2nc(-c3c(C)noc3C)c(C)c(N3CC4(C3)CC(OC)(OC)C4)n2)c1 [Example 272]
2.26	61.9		CNC[C@@H](O)COc1ccc(Cl)c(-c2nc(-c3c(C)noc3C)c(C)c(N3Cc4ccc(OCC(F)F)nc4C3)n2)c1 [Example 273]
5.03	48.8		CNC[C@@H](O)COc1ccc(Cl)c(-c2nc(-c3c(C)c(Cl)nn3C)c(C)c(N3CC4(CC(OC(C)C)C4)C3)n2)c1 [Example 274]
3.53	45		CNC[C@@H](O)COc1ccc(Cl)c(-c2nc(-c3c(C)c(Br)nn3C)c(C)c(N3CC4(CC(OC(C)C)C4)C3)n2)c1 [Example 275]
4.92	75.7		CNC[C@@H](O)COc1ccc(Cl)c(-c2nc(-c3c(C)noc3C)c(C)c(N3CC4(C3)CC3(C4)OCCO3)n2)c1 [Example 276]
8.24	1470		CNC[C@@H](O)COc1ccc(Cl)c(-c2nc(-c3c(C)noc3C)c(C)c(N3CC4(CN(CCC#N)C4)C3)n2)c1 [Example 277]
4.11	544		CNC[C@@H](O)COc1ccc(Cl)c(-c2nc(-c3c(C)noc3C)c(C)c(N3CC4(CCC4F)C3)n2)c1 (stereo partly drawn) [Example 278]
5.75	54.2		CNC[C@@H](O)COc1ccc(Cl)c(-c2nc(-c3c(C)noc3C)c(C)c(N3CC4(CC(N5CC(F)(F)C5)C4)C3)n2)c1 [Example 279]
2.09	105		CNC[C@@H](O)COc1ccc(Cl)c(-c2nc(-c3c(C)noc3C)c(C)c(N3CC4(CC(N5CC(F)C5)C4)C3)n2)c1 [Example 280]
1.04	79.2		CNC[C@@H](O)COc1ccc(Cl)c(-c2nc(-c3c(C)noc3C)c(C)c(N3CC4(CC(N(C)C5CC5)C4)C3)n2)c1 [Example 281]
0.9	2210		CNC[C@@H](O)COc1ccc(Cl)c(-c2nc(-c3c(C)noc3C)c(C)c(N3CC4(CC(NC)C4)C3)n2)c1 [Example 282]
5.67	48.4		CNC[C@@H](O)COc1ccc(Cl)c(-c2nc(-c3c(C)noc3C)c(C)c(N3CC4(C3)CN(C(C)C(F)(F)F)C4)n2)c1 (stereo partly drawn) [Example 283]
2.36	39.2		CNC[C@@H](O)COc1ccc(Cl)c(-c2nc(-c3c(C)c(Br)nn3C)c(C)c(N3CC4(CN(CC(F)F)C4)C3)n2)c1 [Example 284]
2.4	46.1		CNC[C@@H](O)COc1ccc(Cl)c(-c2nc(-c3c(C)c(Cl)nn3C)c(C)c(N3CC4(CN(CC(F)F)C4)C3)n2)c1 [Example 285]
4.17	282		CNC[C@@H](O)COc1ccc(Cl)c(-c2nc(-c3c(C)noc3C)c(C)c(N3CC(C#N)(COC)C3)n2)c1 [Example 286]
4.46	69.1		CNC[C@@H](O)COc1ccc(Cl)c(-c2nc(-c3c(C)noc3C)c(C)c(N3CC4(CC(OCCC#N)C4)C3)n2)c1 [Example 287]
3.86	234		CNC[C@@H](O)COc1ccc(Cl)c(-c2nc(-c3c(C)noc3C)c(C)c(N3CC4(CCC4OC)C3)n2)c1 (stereo partly drawn) [Example 288]

IC50 (Human CARM1 (PRMT4)) [nM]	IC50 ([1]; Homo sapiens, RKO, 48 h) [nM]	IC50 ([1]; 48 hours) [nM]	Compound
4.08	76		CNC[C@@H](O)COc1ccc(Cl)c(-c2nc(-c3c(C)noc3C)c(C)c(N3CC4(CC(N(C)CC(F)F)C4)C3)n2)c1 [Example 289]
3.39		38.2	CNC[C@@H](O)COc1ccc(Cl)c(-c2nc(-c3c(C)noc3C)c(C)c(N3CC4(CC(OCC(F)F)C4)C3)n2)c1 [Example 290]
1.42	155		CNC[C@H](O)COc1ccc(Cl)c(-c2nc(-c3c(C)noc3C)c(C)c(N3Cc4cccnc4C3)n2)c1 [Example 293]
3.78	82.7		CNC[C@@H](O)COc1ccc(Cl)c(-c2nc(-c3c(C)c(Cl)nn3C)c(C)c(N3CC4(CCCN(C(=O)OC)C4)C3)n2)c1 [Example 295]
6.4	137		CNC[C@@H](O)COc1ccc(Cl)c(-c2nc(-c3c(C)noc3C)c(C)c(N3CC4(CCCN(C(=O)OC)C4)C3)n2)c1 [Example 296]
2.83	39.4		CNC[C@@H](O)COc1ccc(Cl)c(-c2nc(-c3c(C)c(Br)nn3C)c(C)c(N3CC4(CC(OCCC#N)C4)C3)n2)c1 [Example 297]
3.11	244		CNC[C@@H](O)COc1ccc(Cl)c(-c2nc(-c3c(C)c(Br)nn3C)c(C)c(N3CC4(CN(CCC#N)C4)C3)n2)c1 [Example 298]
2.94	17.6		CNC[C@@H](O)COc1ccc(Cl)c(-c2nc(-c3c(Cl)cnn3C)c(C)c(N3Cc4cnc(N5CC(OC)C5)nc4C3)n2)c1 [Example 299]
7.99	125		CNC[C@@H](O)COc1ccc(Cl)c(-c2nc(-c3c(C)noc3C)c(C)c(N3CC4(CCCN(CC(F)(F)F)C4)C3)n2)c1 [Example 301]
5.18	70.2		CNC[C@@H](O)COc1ccc(Cl)c(-c2nc(-c3c(C)noc3C)c(C)c(N3CC4(CCCN(C(=O)OCC(F)F)C4)C3)n2)c1 [Example 302]
5.91	37.6		CNC[C@@H](O)COc1ccc(Cl)c(-c2nc(-c3c(C)c(Br)nn3C)c(C)c(N3CC4(CC(OCC(F)F)C4)C3)n2)c1 [Example 303]
6.81	142		CNC[C@@H](O)COc1ccc(Cl)c(-c2nc(-c3c(C)c(Br)nn3C)c(C)c(N3CC(CCl)(CNCC(F)(F)F)C3)n2)c1 [Example 304]
8.35		27.7	CNC[C@@H](O)COc1ccc(Cl)c(-c2nc(-c3c(C)c(Br)nn3C)c(C)c(N3CC4(CN(CC(F)(F)F)C4)C3)n2)c1 [Example 305]
6.52	173		CNC[C@@H](O)COc1ccc(Cl)c(-c2nc(-c3c(C)noc3C)c(C)c(N3CC4(CC(C#N)C4)C3)n2)c1 [Example 306]
3.86	45.4		CCOc1ncc2c(n1)CN(c1nc(-c3cc(OC[C@H](O)CNC)ccc3Cl)nc(-c3c(Cl)cnn3C)c1C)C2 [Example 307]
120	1820		Cc1noc(C)c1-c1nc(-c2cc(OC[C@H](O)CN(C)C=O)ccc2Cl)nc(N2Cc3cccnc3C2)c1C [Example 308]
4.83	40.9		CNC[C@@H](O)COc1ccc(Cl)c(-c2nc(-c3c(C)noc3C)c(C)c(N3CC4(C3)CN([C@H](C)C(F)(F)F)C4)n2)c1 [Example 330]
6.31	32.9		CNC[C@@H](O)COc1ccc(Cl)c(-c2nc(-c3c(C)noc3C)c(C)c(N3CC4(C3)CN([C@@H](C)C(F)(F)F)C4)n2)c1 [Example 331]
4.1	80.9		CNC[C@@H](O)COc1ccc(Cl)c(-c2nc(-c3c(C)c(Cl)nn3C)c(C)c(N3CC4(CC(C#N)C4)C3)n2)c1 [Example 332]
